Laboratory results: patent US6056944A, “Pharmaceutical compositions for oral use including an NSAID and ceramides” (Synthelabo, priority 1995, dated 2000)

Tested on: inflammation of the adult rat paw
Assay: carragheenin-induced inflammation of the adult rat paw (edema volume)
Assay type: in vivo
Conditions: gavage, 1 mg/kg, from 4 hours onwards, persisting up to 5 hours
Experimental: These tests consist in inducing inflammation of the adult rat paw and monitoring the development of the edema by measuring the volume of the paw.
The experimental conditions were as follows: rats, weighing from 200 to 220 g, were treated by gavage, 18 hours and 1 hour before administering the inflammatory agent, with the NSAI product to be studied, which was or was not combined with ceramides and which was administered in a volume of 0.5 ml. Control groups were given an 0.9% solution of sodium chloride.
The inflammatory reaction is induced by subcutaneously injecting 0.1 ml of a suspension of carragheenin in physiological saline. The volume of the paw is measured, using a mercury plethysmograph, before the inflammation starts, 30 minutes after it has started, and then every hour up to the 6th hour, and then finally 24 hours afterwards. The changes in volume are measured in cm on a graduated scale.
The tests were carried out with ketoprofen lysine, which was administered at 1 and 3 mg/kg and which was or was not combined with 0.5% of ceramides, and with ketoprofen, which was administered at 1 mg/kg and which was or was not combined with 1% of ceramides.

## CC(C(=O)O)c1cccc(C(=O)c2ccccc2)c1 (stereo not shown) [ketoprofen]
  anti-inflammatory effect as compared with the control: significant as compared with the control
